The values that follow come from patent US20080161366A1, “AMINOALKYL SUBSTITUTED ARYL SULFAMIDE DERIVATIVES AND METHODS OF THEIR USE” (Wyeth, priority 2006, published 2008).

Counter-ions that a name gives are not always drawn.

One data set concerns the target hNET (Homo sapiens, UniProt P23975). The experiment in a line: hNET binding according to Mahaney et al. The following applies: printed in the Protocol B column with footnote.
Data set [1] has as its target human norepinephrine transporter (hNET) (Homo sapiens, UniProt P23975). Put plainly: hNET uptake, Protocol B: cell based norepinephrine reuptake assay using recombinant hNET (MDCK-Net6 cells). The following applies: hNET Function IC50 (nM), protocol not stated.
Data set [2] in a line: Rat liver microsomal stability assay. Type of data set: in vitro ADME. The following applies: pH 7.4; rat liver microsomes, 37° C., NADPH; read-out: RLM stability t1/2. On the technique in general: Liver microsomes are vesicles of endoplasmic reticulum, rich in cytochrome P450 enzymes.
Data set [3] has as its target Dopamine Transporter (hDAT) (Homo sapiens, UniProt Q01959). Put plainly: Dopamine transporter (hDAT) membrane binding assay, [3H]-WIN 35,428.

Chain of human norepinephrine transporter (hNET) (P23975 whole entry): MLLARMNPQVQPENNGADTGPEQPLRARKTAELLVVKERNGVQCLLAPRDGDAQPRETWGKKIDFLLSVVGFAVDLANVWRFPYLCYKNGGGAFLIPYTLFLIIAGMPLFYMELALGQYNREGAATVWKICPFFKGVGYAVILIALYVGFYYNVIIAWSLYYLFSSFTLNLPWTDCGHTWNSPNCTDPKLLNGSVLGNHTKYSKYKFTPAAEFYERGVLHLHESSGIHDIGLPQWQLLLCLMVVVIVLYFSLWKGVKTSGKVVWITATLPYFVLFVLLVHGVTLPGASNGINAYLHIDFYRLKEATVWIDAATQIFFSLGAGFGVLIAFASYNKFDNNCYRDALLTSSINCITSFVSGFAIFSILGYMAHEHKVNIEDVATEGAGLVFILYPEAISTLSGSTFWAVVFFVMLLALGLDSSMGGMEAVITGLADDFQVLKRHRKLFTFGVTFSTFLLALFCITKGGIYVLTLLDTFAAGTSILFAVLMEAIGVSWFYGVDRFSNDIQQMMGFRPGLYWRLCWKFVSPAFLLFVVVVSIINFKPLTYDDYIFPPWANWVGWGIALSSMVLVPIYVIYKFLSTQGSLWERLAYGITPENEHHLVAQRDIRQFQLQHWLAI
Chain of Dopamine Transporter (hDAT) (Q01959 whole entry): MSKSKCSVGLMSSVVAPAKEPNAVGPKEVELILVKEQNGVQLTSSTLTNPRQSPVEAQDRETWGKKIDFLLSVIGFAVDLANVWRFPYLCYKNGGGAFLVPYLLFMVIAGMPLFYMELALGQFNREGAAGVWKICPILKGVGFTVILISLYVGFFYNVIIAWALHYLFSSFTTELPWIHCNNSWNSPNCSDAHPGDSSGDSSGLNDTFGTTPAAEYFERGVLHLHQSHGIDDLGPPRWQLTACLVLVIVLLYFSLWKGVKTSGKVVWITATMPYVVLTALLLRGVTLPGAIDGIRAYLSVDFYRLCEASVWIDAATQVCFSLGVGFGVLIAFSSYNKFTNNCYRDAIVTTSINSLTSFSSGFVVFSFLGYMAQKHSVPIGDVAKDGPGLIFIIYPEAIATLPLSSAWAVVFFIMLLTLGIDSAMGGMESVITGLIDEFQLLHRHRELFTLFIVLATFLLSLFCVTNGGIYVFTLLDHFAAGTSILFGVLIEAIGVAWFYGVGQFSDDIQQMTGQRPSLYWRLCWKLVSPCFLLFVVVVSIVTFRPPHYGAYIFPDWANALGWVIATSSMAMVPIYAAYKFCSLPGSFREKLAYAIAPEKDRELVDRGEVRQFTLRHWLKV
Chain of hNET (P23975 whole entry): as the sequence (P23975 whole entry) above

For `NCCCCCN1c2ccccc2N(c2ccc(F)cc2F)S1(=O)=O` [Example 116, 5-[3-(2,4-difluorophenyl)-2,2-dioxido-2,1,3-benzothiadiazol-1(3H)-yl]pentan-1-amine hydrochloride], the IC50 on hNET was 679 nM.
Consider `CNCCCN1c2ccccc2N(c2cc(F)ccc2F)S1(=O)=O` [drawing 164], for which the results for the 50% inhibitory concentration (IC50) in data set [1] and in data set [3] were 2.7 nM and 479 nM, respectively. Besides, in data set [2], the half-life at 1 µM amounted to 2 min.
In the case of `CNCCCN1c2ccccc2N(c2ccc(F)cc2F)S1(=O)=O` [drawing 165], the half-maximal inhibitory concentration (IC50) came out at 11.3 nM in data set [1] and 366 nM in data set [3]. Moreover, in data set [2], the half-life at 1 µM is 10 min.
On to `CNCCCCN1c2ccccc2N(c2ccc(F)cc2)S1(=O)=O` [drawing 167], for which the half-inhibitory concentration (IC50) in data set [1] came to 46.1 nM; in data set [3], 52.8 nM. The half-life at 1 µM in data set [2] was found to be 19 min.
Turning to `CNCCCN1c2ccccc2N(c2ccccc2C)S1(=O)=O` [drawing 168], the figures for the 50% inhibitory concentration (IC50) in data set [1] and in data set [3] were 7.06 nM and 276 nM, respectively. The half-life at 1 µM in data set [2] was less than 1 min.
The corresponding values for `CNCCCN1c2ccccc2N(c2cccc(OC)c2)S1(=O)=O` [drawing 169] are 10.8 nM, 178 nM and 2 min.
In the same order, the values of `CCNCCCN1c2ccccc2N(c2ccccc2F)S1(=O)=O` [drawing 170] are 2.56 nM, 665 nM and 1 min.

For orientation: IC50 means the concentration at which inhibition is half-maximal.
